Measurements as given in ChEMBL document CHEMBL5724914, “Linking interpersonal differences in gut microbiota composition and drug biotransformation activity” (2024).

Tests used:
[1] = human gut metagenome, 24 h, 2 µM
[2] = human gut metagenome, 24 h, 2 µM; remark: listed apart in the source
[3] = human gut metagenome, 24 h, 2 µM; remark: listed apart in the source
[4] = The drug is tested on Z-019 corresponding to rat gut metagenome with ENA study accession number: PRJEB37062 and ENA sample accession number: ERS12561818 for biotransformation under anaerobic condition. The drug concentrations were measured over 9 timepoints collected between 0 and 24 hours of incubation by liquid-chromatography-coupled mass spectrometry (LC–MS); conditions: 2 µM
[5] = The drug is tested on Z-027 corresponding to metagenome with ENA study accession number: PRJEB37062 and ENA sample accession number: ERS12561826 for biotransformation under anaerobic condition. The drug concentrations were measured over 9 timepoints collected between 0 and 24 hours of incubation by liquid-chromatography-coupled mass spectrometry (LC–MS); conditions: 2 µM
[6] = The drug is tested on Z-003 corresponding to pig gut metagenome with ENA study accession number: PRJEB37062 and ENA sample accession number: ERS12561803 for biotransformation under anaerobic condition. The drug concentrations were measured over 9 timepoints collected between 0 and 24 hours of incubation by liquid-chromatography-coupled mass spectrometry (LC–MS); conditions: 2 µM
[7] = The drug is tested on Z-023 corresponding to metagenome with ENA study accession number: PRJEB37062 and ENA sample accession number: ERS12561822 for biotransformation under anaerobic condition. The drug concentrations were measured over 9 timepoints collected between 0 and 24 hours of incubation by liquid-chromatography-coupled mass spectrometry (LC–MS); conditions: 2 µM
[8] = The drug is tested on WLS-086 corresponding to human gut metagenome with ENA study accession number: PRJEB37062 and ENA sample accession number: ERS12561752 for biotransformation under anaerobic condition. The drug concentrations were measured over 9 timepoints collected between 0 and 24 hours of incubation by liquid-chromatography-coupled mass spectrometry (LC–MS); conditions: 2 µM
[9] = The drug is tested on Z-002 corresponding to rabbit gut metagenome with ENA study accession number: PRJEB37062 and ENA sample accession number: ERS12561802 for biotransformation under anaerobic condition. The drug concentrations were measured over 9 timepoints collected between 0 and 24 hours of incubation by liquid-chromatography-coupled mass spectrometry (LC–MS); conditions: 2 µM
[10] = The drug is tested on Z-008 corresponding to metagenome with ENA study accession number: PRJEB37062 and ENA sample accession number: ERS12561808 for biotransformation under anaerobic condition. The drug concentrations were measured over 9 timepoints collected between 0 and 24 hours of incubation by liquid-chromatography-coupled mass spectrometry (LC–MS); conditions: 2 µM
[11] = The drug is tested on WLS-052 corresponding to human gut metagenome with ENA study accession number: PRJEB37062 and ENA sample accession number: ERS12561747 for biotransformation under anaerobic condition. The drug concentrations were measured over 9 timepoints collected between 0 and 24 hours of incubation by liquid-chromatography-coupled mass spectrometry (LC–MS); conditions: 2 µM
[12] = human gut metagenome, 24 h, 2 µM; remark: listed apart in the source
[13] = human gut metagenome, 24 h, 2 µM; remark: listed apart in the source
[14] = human gut metagenome, 24 h, 2 µM; remark: listed apart in the source
[15] = The drug is tested on WLS-007 corresponding to human gut metagenome with ENA study accession number: PRJEB37062 and ENA sample accession number: ERS12561742 for biotransformation under anaerobic condition. The drug concentrations were measured over 9 timepoints collected between 0 and 24 hours of incubation by liquid-chromatography-coupled mass spectrometry (LC–MS); conditions: 2 µM
[16] = The drug is tested on Z-014 corresponding to rat gut metagenome with ENA study accession number: PRJEB37062 and ENA sample accession number: ERS12561814 for biotransformation under anaerobic condition. The drug concentrations were measured over 9 timepoints collected between 0 and 24 hours of incubation by liquid-chromatography-coupled mass spectrometry (LC–MS); conditions: 2 µM
[17] = The drug is tested on Z-020 corresponding to rabbit gut metagenome with ENA study accession number: PRJEB37062 and ENA sample accession number: ERS12561819 for biotransformation under anaerobic condition. The drug concentrations were measured over 9 timepoints collected between 0 and 24 hours of incubation by liquid-chromatography-coupled mass spectrometry (LC–MS); conditions: 2 µM
[18] = The drug is tested on WLS-069 corresponding to human gut metagenome with ENA study accession number: PRJEB37062 and ENA sample accession number: ERS12561748 for biotransformation under anaerobic condition. The drug concentrations were measured over 9 timepoints collected between 0 and 24 hours of incubation by liquid-chromatography-coupled mass spectrometry (LC–MS); conditions: 2 µM
[19] = The drug is tested on Z-010 corresponding to metagenome with ENA study accession number: PRJEB37062 and ENA sample accession number: ERS12561810 for biotransformation under anaerobic condition. The drug concentrations were measured over 9 timepoints collected between 0 and 24 hours of incubation by liquid-chromatography-coupled mass spectrometry (LC–MS); conditions: 2 µM
[20] = human gut metagenome, 24 h, 2 µM; remark: listed apart in the source
Note: call rule not given here.

Compound	Bacterial Biotransformation [1]	Bacterial Biotransformation [2]	Bacterial Biotransformation [3]	Bacterial Biotransformation [4]	Bacterial Biotransformation [5]	Bacterial Biotransformation [6]	Bacterial Biotransformation [7]	Bacterial Biotransformation [8]	Bacterial Biotransformation [9]	Bacterial Biotransformation [10]	Bacterial Biotransformation [11]	Bacterial Biotransformation [12]	Bacterial Biotransformation [13]	Bacterial Biotransformation [14]	Bacterial Biotransformation [15]	Bacterial Biotransformation [16]	Bacterial Biotransformation [17]	Bacterial Biotransformation [18]	Bacterial Biotransformation [19]	Bacterial Biotransformation [20]
CCN(C(C)=O)c1cccc(-c2ccnc3c(C#N)cnn23)c1 [ZALEPLON]	Compound metabolized	Compound metabolized	Compound NOT metabolized	Compound NOT metabolized	Compound NOT metabolized	Compound metabolized	Compound metabolized	Compound metabolized	Compound metabolized	Compound NOT metabolized	Compound metabolized	Compound metabolized	Compound NOT metabolized	Compound metabolized	Compound metabolized	Compound NOT metabolized	Compound metabolized	Compound metabolized	Compound metabolized	Compound metabolized
C=C[C@H]1CN2CC[C@H]1C[C@H]2[C@H](O)c1ccnc2ccc(OC)cc12.C=C[C@H]1CN2CC[C@H]1C[C@H]2[C@H](O)c1ccnc2ccc(OC)cc12.O.O.O=S(=O)(O)O [QUININE SULFATE]	Compound NOT metabolized	Compound NOT metabolized	Compound NOT metabolized	Compound NOT metabolized	Compound NOT metabolized	Compound NOT metabolized	Compound NOT metabolized	Compound metabolized	Compound NOT metabolized	Compound NOT metabolized	Compound NOT metabolized	Compound metabolized	Compound NOT metabolized	Compound metabolized	Compound NOT metabolized	Compound NOT metabolized	Compound NOT metabolized	Compound NOT metabolized	Compound metabolized	Compound metabolized
CC(C)(C)NCC(O)COc1cccc2c1CC(O)C(O)C2 (stereo not given) [NADOLOL]	Compound NOT metabolized	Compound NOT metabolized	Compound NOT metabolized	Compound NOT metabolized	Compound NOT metabolized	Compound metabolized	Compound NOT metabolized	Compound metabolized	Compound metabolized	Compound NOT metabolized	Compound NOT metabolized	Compound metabolized	Compound NOT metabolized	Compound metabolized	Compound NOT metabolized	Compound NOT metabolized	Compound NOT metabolized	Compound metabolized	Compound metabolized	Compound NOT metabolized
CC(CCc1ccccc1)NCC(O)c1ccc(O)c(C(N)=O)c1 (stereo not given) [LABETALOL]	Compound NOT metabolized	Compound NOT metabolized	Compound NOT metabolized	Compound NOT metabolized	Compound metabolized	Compound NOT metabolized	Compound metabolized	Compound metabolized	Compound NOT metabolized	Compound NOT metabolized	Compound NOT metabolized	Compound metabolized	Compound NOT metabolized	Compound NOT metabolized	Compound NOT metabolized	Compound NOT metabolized	Compound NOT metabolized	Compound NOT metabolized	Compound NOT metabolized	Compound NOT metabolized
Br.CN1CCC[C@@H]1Cc1c[nH]c2ccc(CCS(=O)(=O)c3ccccc3)cc12 [ELETRIPTAN HYDROBROMIDE]	Compound NOT metabolized	Compound metabolized	Compound NOT metabolized	Compound NOT metabolized	Compound NOT metabolized	Compound NOT metabolized	Compound NOT metabolized	Compound metabolized	Compound metabolized	Compound NOT metabolized	Compound NOT metabolized	Compound metabolized	Compound NOT metabolized	Compound metabolized	Compound metabolized	Compound NOT metabolized	Compound NOT metabolized	Compound metabolized	Compound NOT metabolized	Compound NOT metabolized
